The nature of this data set: Solubility parameter (Hildebrand parameter) values for selected solvents and polyacrylamide. Conditions: solvent with polyacrylamide homopolymer, δ 21.

Excerpt: Determination of a suitable lower level alcohol, glycol, ketone, or mixtures thereof may be conducted using the solubility. The solubility of an amorphous polymer in a given solvent is governed by the Gibbs free energy of mixing given by Equation (1): ΔGm=ΔHm−TΔSm (1 ) ΔGm is the free energy change of the system upon mixing. ΔHm and ΔSm are the enthalpy and entropy change upon mixing, respectively, and T is the absolute temperature. When the free energy of mixing is less than zero (ΔGm<0) for a given polymer and solvent (or solvent mixture thereof), a single-phase system is obtained and mixing occurs spontaneously.
Solubility parameters, originally developed to describe enthalpy of mixing with simple nonpolar solvents, have been extended to describe the interactions of polymers and polar solvent. The enthalpy of mixing of such systems is expressed in a form like Equation (2):
[formula] […]
The units of δ may be difficult to rationalize. They are generally expressed as units of MPa½ or (cal/cm^3)^1/2. One simple way to understand these units is to note that Equation (4) calls for a solution in terms of a quantity of energy. It can be readily seen that substitution of δ values in terms of (cal/cm^3)^1/2 or MPa½ into Equation (4) results in a quantity of energy in terms of calories or joules, respectively, after unit cancellation (1 MPa=1 kJ/m^3). […]

Regarding `CC(C)=O` [Acetone], the “(δ1 − δ2)^2 PAM (cohesive energy difference parameter)” value is recorded as 123.2.
For the compound n-Propyl alcohol, the “(δ1 − δ2)^2 PAM (cohesive energy difference parameter)” value was 82.8.

The values above are taken from patent publication US7670967B2, “Dispersible alcohol/cleaning wipes via topical or wet-end application of acrylamide or vinylamide/amine polymers” (Kimberly-Clark Worldwide, Inc., priority 2004, dated 2010).
